Experimental data from ChEMBL document CHEMBL5291721, “A preclinical secondary pharmacology resource illuminates target-adverse drug reaction associations of marketed drugs” (Nat Commun, 2023).

Assays:
[1] = molecular target: T1, Alpha-2A adrenergic receptor (Homo sapiens, UniProt P08913); format: functional, cell-based
T1 sequence (P08913 whole entry): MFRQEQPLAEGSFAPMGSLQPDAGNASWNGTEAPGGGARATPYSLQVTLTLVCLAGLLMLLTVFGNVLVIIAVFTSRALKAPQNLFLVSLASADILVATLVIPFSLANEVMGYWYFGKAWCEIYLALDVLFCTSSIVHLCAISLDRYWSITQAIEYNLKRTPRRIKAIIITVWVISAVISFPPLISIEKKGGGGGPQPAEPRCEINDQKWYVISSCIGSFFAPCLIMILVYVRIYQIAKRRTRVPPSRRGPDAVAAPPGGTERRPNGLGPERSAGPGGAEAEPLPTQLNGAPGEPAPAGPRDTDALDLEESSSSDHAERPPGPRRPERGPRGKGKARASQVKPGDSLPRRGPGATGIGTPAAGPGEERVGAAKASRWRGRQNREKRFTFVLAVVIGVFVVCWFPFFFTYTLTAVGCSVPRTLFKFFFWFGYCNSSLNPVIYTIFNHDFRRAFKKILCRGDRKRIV

B2 bradykinin receptor = molecular target: T2, B2 bradykinin receptor (Homo sapiens, UniProt P30411)
T2 sequence (P30411 whole entry): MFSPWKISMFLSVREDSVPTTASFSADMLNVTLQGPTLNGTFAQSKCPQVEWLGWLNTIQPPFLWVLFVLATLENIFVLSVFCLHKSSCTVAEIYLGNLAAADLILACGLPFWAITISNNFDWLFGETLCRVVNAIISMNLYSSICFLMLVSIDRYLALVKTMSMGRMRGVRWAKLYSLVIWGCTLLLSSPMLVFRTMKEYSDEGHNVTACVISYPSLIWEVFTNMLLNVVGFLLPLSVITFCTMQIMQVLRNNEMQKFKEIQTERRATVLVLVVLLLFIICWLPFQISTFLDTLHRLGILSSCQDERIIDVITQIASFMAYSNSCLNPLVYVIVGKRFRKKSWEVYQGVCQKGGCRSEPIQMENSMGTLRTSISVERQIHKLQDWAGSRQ

Cannabinoid receptor 1 = Cannabinoid receptor 1 (Homo sapiens, UniProt P21554); format: functional, cell-based
Histamine H2 receptor = Histamine H2 receptor (Homo sapiens, UniProt P25021); format: functional, cell-based
[2] = molecular target: T3, 5-hydroxytryptamine receptor 1A (Homo sapiens, UniProt P08908); format: functional, cell-based
T3 sequence (P08908 whole entry): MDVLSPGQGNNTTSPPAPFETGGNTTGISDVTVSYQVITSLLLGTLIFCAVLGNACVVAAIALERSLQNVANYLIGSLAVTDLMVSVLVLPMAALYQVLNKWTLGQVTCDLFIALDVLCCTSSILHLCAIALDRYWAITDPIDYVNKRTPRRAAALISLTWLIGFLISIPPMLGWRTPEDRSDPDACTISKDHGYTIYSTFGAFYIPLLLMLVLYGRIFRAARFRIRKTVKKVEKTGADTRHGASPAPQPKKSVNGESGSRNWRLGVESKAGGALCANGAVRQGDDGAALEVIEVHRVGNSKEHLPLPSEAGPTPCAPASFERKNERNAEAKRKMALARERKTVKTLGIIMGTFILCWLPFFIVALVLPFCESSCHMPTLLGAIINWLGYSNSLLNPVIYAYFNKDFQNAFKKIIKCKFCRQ

[3] = molecular target: T3, 5-hydroxytryptamine receptor 1A; format: functional, cell-based; remark: listed apart in the source
Mu-type opioid receptor = Mu-type opioid receptor (Homo sapiens, UniProt P35372); experiment: biochemical; format: functional
[4] = molecular target: T4, Equilibrative nucleoside transporter 1 (Homo sapiens, UniProt Q99808)
T4 sequence (Q99808 whole entry): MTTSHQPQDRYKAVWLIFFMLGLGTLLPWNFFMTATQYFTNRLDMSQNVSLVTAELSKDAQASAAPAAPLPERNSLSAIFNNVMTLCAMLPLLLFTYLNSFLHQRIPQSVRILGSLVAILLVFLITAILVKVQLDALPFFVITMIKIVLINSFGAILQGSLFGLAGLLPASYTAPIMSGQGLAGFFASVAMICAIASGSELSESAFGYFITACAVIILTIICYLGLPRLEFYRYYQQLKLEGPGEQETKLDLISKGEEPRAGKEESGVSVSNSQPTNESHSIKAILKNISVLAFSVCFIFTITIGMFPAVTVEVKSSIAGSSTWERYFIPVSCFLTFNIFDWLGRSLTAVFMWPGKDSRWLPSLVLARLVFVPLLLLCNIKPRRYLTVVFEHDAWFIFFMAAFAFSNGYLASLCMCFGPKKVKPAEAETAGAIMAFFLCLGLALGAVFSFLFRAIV

[5] = molecular target: T5, Amine oxidase [flavin-containing] A (Homo sapiens, UniProt P21397); format: functional
T5 sequence (P21397 whole entry): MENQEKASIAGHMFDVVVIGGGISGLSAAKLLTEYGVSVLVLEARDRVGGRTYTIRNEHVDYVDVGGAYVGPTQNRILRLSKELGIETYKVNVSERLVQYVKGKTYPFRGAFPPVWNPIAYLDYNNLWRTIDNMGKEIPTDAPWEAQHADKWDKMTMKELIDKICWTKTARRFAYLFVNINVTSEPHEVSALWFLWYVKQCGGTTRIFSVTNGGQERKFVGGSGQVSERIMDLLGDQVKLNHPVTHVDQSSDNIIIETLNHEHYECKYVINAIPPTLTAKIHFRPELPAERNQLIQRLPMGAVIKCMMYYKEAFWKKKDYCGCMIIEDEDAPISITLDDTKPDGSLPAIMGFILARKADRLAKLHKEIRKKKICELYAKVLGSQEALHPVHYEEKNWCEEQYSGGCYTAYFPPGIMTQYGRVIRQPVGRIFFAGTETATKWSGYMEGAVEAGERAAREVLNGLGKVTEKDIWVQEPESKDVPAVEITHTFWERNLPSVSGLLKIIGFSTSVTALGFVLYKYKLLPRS

Histamine H3 receptor = Histamine H3 receptor (Homo sapiens, UniProt Q9Y5N1)
Thromboxane A2 receptor = molecular target: T6, Thromboxane A2 receptor (Homo sapiens, UniProt P21731)
T6 sequence (P21731 whole entry): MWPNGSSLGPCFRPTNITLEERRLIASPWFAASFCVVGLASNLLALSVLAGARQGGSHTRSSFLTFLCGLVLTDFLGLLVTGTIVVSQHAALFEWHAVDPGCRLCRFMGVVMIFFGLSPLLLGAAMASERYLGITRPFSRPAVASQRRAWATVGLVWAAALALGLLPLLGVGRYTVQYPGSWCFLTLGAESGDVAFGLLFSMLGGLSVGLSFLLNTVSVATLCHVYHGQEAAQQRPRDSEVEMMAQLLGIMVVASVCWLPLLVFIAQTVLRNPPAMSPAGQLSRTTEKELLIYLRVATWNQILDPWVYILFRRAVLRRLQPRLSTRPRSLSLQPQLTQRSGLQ

Measured: AC50
Note: assay procedure not described here.

Chain of Histamine H2 receptor (P25021 whole entry): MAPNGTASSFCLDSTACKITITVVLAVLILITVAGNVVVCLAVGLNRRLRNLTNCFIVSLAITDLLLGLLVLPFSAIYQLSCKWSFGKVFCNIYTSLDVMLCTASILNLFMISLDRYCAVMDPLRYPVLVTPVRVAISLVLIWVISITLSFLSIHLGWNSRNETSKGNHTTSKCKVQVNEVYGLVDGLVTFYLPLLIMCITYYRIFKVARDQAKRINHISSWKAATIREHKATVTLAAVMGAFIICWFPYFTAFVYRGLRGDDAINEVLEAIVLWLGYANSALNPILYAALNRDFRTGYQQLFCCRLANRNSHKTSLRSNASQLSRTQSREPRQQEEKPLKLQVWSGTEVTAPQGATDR
Chain of Cannabinoid receptor 1 (P21554 whole entry): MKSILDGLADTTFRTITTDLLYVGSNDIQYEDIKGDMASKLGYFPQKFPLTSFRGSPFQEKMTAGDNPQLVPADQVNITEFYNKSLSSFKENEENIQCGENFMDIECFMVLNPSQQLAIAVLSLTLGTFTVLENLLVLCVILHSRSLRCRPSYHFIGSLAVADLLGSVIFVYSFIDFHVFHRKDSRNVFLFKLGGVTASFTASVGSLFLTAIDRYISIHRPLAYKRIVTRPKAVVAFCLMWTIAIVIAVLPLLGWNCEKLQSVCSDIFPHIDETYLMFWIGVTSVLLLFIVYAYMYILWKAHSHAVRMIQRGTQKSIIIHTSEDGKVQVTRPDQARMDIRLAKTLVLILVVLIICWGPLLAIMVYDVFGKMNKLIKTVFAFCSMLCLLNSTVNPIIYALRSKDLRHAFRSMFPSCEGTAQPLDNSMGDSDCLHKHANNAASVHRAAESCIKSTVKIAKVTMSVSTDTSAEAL
Chain of Histamine H3 receptor (Q9Y5N1 whole entry): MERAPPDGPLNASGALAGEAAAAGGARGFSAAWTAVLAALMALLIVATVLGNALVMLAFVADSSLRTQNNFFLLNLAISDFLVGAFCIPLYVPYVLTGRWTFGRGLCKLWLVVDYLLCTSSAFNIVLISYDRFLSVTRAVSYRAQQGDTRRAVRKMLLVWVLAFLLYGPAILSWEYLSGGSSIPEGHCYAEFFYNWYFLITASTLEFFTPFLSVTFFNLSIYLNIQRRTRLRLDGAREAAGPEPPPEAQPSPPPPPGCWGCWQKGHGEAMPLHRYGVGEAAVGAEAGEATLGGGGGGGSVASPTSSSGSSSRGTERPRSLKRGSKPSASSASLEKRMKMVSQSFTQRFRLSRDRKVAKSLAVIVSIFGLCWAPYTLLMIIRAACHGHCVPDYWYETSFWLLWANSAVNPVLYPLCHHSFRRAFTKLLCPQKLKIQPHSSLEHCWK
Chain of Mu-type opioid receptor (P35372 whole entry): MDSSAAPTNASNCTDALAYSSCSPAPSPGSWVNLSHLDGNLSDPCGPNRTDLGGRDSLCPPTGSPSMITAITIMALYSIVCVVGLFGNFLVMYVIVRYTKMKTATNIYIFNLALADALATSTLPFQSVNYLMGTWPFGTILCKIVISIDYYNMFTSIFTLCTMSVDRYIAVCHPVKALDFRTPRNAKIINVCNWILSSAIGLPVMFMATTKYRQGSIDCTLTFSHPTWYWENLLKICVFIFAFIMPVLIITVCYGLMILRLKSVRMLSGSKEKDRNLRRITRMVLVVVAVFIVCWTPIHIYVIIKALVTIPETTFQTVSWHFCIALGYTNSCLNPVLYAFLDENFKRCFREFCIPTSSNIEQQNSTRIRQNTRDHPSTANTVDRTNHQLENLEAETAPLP

CC(C)OC(=O)CCC/C=C\C[C@@H]1[C@@H](CC[C@@H](O)CCc2ccccc2)[C@H](O)C[C@@H]1O [LATANOPROST]
not listed: Thromboxane A2 receptor
> 30 µM: all other assays above

CN1C(=O)C(O)N=C(c2ccccc2Cl)c2cc(Cl)ccc21 (configuration not stated) [LORMETAZEPAM]
not listed: [1]
> 30 µM: all other assays above

CCC1(CC)C(=O)NCC(C)C1=O (configuration not stated) [METHYPRYLON]
not listed: Thromboxane A2 receptor
> 30 µM: all other assays above

O=C(O)/C=C/c1ccc(Cn2ccnc2)cc1 [OZAGREL]
not listed: [4]
> 30 µM: all other assays above

Cc1ccc(-n2nccn2)c(C(=O)N2CCN(c3nc4cc(Cl)ccc4o3)CC[C@H]2C)c1 [SUVOREXANT]
> 10 µM: Thromboxane A2 receptor
not listed: [4]
> 30 µM: all other assays above

COc1cc2c(N)nc(N3CCN(C(=O)OCC(C)(C)O)CC3)nc2c(OC)c1OC [TRIMAZOSIN]
22 µM: [3]
not listed: [4]
> 30 µM: all other assays above

C=CCN1CCCC1CNC(=O)c1cc(S(N)(=O)=O)cc(OC)c1OC (configuration not stated) [VERALIPRIDE]
23 µM: Histamine H3 receptor
26 µM: [1]
3.6 µM: [3]
> 30 µM: all other assays above

O=C(NCCNCC(O)COc1ccc(O)cc1)N1CCOCC1 (configuration not stated) [XAMOTEROL]
> 30 µM: all assays above
